Source: PMC5512079, “The sialate O-acetylesterase EstA from gut Bacteroidetes species enables sialidase-mediated cross-species foraging of 9-O-acetylated sialoglycans” (The Journal of Biological Chemistry, 2017)

Target: T1, B. thetaiotaomicron NanH sialidase (NanH-His) (Bacteroides thetaiotaomicron, UniProt Q8AAK9)
T1 construct: gene BT_0455
T1 sequence (Q8AAK9 23-544): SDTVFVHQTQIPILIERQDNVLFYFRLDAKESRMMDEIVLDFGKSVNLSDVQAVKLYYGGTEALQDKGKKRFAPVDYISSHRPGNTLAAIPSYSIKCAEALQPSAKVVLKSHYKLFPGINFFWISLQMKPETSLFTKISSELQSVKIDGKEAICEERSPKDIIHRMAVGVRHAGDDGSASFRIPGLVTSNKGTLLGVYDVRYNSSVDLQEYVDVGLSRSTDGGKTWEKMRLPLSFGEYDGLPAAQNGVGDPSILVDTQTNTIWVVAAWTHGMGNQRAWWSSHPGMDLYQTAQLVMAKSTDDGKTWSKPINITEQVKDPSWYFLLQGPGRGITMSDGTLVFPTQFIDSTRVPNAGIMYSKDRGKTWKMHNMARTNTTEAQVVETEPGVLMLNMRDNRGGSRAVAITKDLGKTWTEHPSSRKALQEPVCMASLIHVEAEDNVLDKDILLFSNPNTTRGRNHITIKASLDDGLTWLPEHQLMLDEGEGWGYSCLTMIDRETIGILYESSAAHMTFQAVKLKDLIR
Assay: fluorogenic sialidase assay, 4-methylumbelliferone release (ex […] nm, em […] nm)
Format: biochemical
Settings: 100 uM 4-MU-Sia, PBS pH 7.4; used to test fractions and estimate milliunits

**Q.** How did the “fluorogenic sialidase assay, 4-methylumbelliferone release (ex 365 nm, em 440 nm)” value turn out when CC(=O)N[C@H]1[C@H]([C@H](O)[C@H](O)CO)OC(Oc2ccc3c(C)cc(=O)oc3c2)(C(=O)O)C[C@@H]1O (stereo partly shown) [4-methylumbelliferyl-N-acetylneuraminic acid] was run?
**A.** Fractions were tested for activity with the fluorogenic sialidase substrate 4-methylumbelliferyl-N-acetylneuraminic acid
